Data published in ChEMBL document CHEMBL5357055, “Protoilludane-Type and Related Nor-Sesquiterpenes from Phellinus hartigii and Their Anti-Hypertrophic Activities in Rat Cardiomyocytes” (J Nat Prod, 2024).
The source made the active and inactive calls. The calls are words filed in the database; no cut-off is given here.

Experiments:
[1] = system: NRCM; experiment: Anticardiac hypertrophic activity in phenylephrine-induced hypertrophy in Sprague-Dawley rat NRCM cells assessed as reduction in NPPB mRNA expression level at 50 uM preincubated for 12 hrs followed by phenylephrine stimulation and measured after 48 hrs by qRT-PCR analysis; assay type: functional, cell-based; settings: time 60.0 hrs
[2] = system: NRCM; experiment: Anticardiac hypertrophic activity in phenylephrine-induced hypertrophy in Sprague-Dawley rat NRCM cells assessed as reduction in inhibition of ANP level at 50 uM preincubated for 12 hrs followed by phenylephrine stimulation and measured after 48 hrs by Westernblot analysis; assay type: functional, cell-based; settings: time 60.0 hrs
[3] = system: NRCM; experiment: Anticardiac hypertrophic activity in phenylephrine-induced hypertrophy in Sprague-Dawley rat NRCM cells assessed as attenuation of cardiomyocyte hypertrophy preincubated for 12 hrs followed by phenylephrine stimulation and measured after 48 hrs by 488-I Phalloidin/DAPI staining based fluorescence microscopic analysis; assay type: functional, cell-based; settings: time 60.0 hrs
[4] = system: NRCM; experiment: Anticardiac hypertrophic activity in phenylephrine-induced hypertrophy in Sprague-Dawley rat NRCM cells assessed as reduction in inhibition of MYH7 level at 50 uM preincubated for 12 hrs followed by phenylephrine stimulation and measured after 48 hrs by Westernblot analysis; assay type: functional, cell-based; settings: time 60.0 hrs
[5] = system: NRCM; experiment: Anticardiac hypertrophic activity in phenylephrine-induced hypertrophy in Sprague-Dawley rat NRCM cells assessed as reduction in NPPA mRNA expression level at 50 uM preincubated for 12 hrs followed by phenylephrine stimulation and measured after 48 hrs by qRT-PCR analysis; assay type: functional, cell-based; settings: time 60.0 hrs
[6] = Cytotoxicity against NRCM cells assessed as reduction in cell viability measured after 48 hrs by CCK-8 method; assay type: toxicity, cell-based; settings: rat

Structure (SMILES) | Activity [1] | Activity [2] | Activity [3] | Activity [4] | Activity [5] | CC50 at 48 h [6]
COC(=O)[C@@H]1C[C@@H]2C[C@@H](C)[C@@H]3OC(=O)C[C@]3(C)[C@H]2C1 | Active | Active | Active | Active | Active | > 50 µM
C[C@@]12CC[C@@](C)(C1=O)[C@H]1C[C@H](C(=O)O)C[C@H]1C2 | Active | Active | Active | Active | Active | > 50 µM
COC(=O)[C@@H]1C[C@@H]2C[C@@H](C)[C@@H]3C(=O)C[C@]3(C)[C@H]2C1 | Active | Active | Active | Active | Active | > 50 µM
